In patent US20230399341A1, “7-PHENYL SUBSTITUTED 2-AMINOQUINAZOLINE INHIBITORS OF HPK1” (MERCK SHARP & DOHME LLC, priority 2020, published 2023) one finds IC50 data, which are given here for 26 compounds.

This assay addresses T1, Human HPK1, catalytic domain (Homo sapiens, UniProt Q92918).
T1 sequence (Q92918 1-346): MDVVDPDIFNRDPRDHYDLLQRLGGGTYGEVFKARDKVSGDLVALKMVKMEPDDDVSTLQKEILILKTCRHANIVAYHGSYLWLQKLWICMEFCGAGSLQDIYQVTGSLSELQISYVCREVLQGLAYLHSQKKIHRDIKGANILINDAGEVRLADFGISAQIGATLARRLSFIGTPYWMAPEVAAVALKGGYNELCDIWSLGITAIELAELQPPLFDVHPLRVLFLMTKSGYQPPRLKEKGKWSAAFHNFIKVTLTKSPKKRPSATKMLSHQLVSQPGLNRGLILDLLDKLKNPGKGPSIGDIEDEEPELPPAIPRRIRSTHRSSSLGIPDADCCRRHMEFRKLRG
The assay can be described thus: HPK1-SLP76 TR-FRET Assay. Conditions: 75 pM HPK1, ATP 10 uM, SLP76 10 nM, 30 min pre-incubation, 60 min reaction. The format is biochemical. (Time-resolved FRET reads energy transfer from a long-lived donor to a nearby acceptor.)
Usually IC50 stands for the midpoint of a concentration-inhibition curve. Read a high IC50 as a need for much substance. `COc1cc2c(cc1Nc1ncc3ccc(-c4cccc(C5CCC(=O)N5)c4)cc3n1)CN(C)CC2` (racemic) [Compound 1-99, (R and S)-5-(3-{2-[(6-methoxy-2-methyl-1,2,3,4-tetrahydroisoquinolin-7-yl)amino]quinazolin-7-yl}phenyl)pyrrolidin-2-one] yielded an IC50 of 120 nM.

With `COc1cc2c(cc1Nc1ncc3ccc(-c4cnn(CC(C)O)c4)cc3n1)CN(C)CC2` (racemic) [Compound 1-102, (R and S)-1-(4-{2-[(6-methoxy-2-methyl-1,2,3,4-tetrahydroisoquinolin-7-yl)amino]quinazolin-7-yl}-1H-pyrazol-1-yl)propan-2-ol], inhibition was half-maximal at 22.2 nM (IC50).

On to `COc1cc2c(cc1Nc1ncc3c(N)c(F)c(-c4cnc5c(c4C)NCCO5)cc3n1)C(CO)N(C)CC2` (racemic) [Compound 2-46, (R and S)-(7-{[5-amino-6-fluoro-7-(8-methyl-2,3-dihydro-1H-pyrido[2,3-b][1,4]oxazin-7-yl)quinazolin-2-yl]amino}-6-methoxy-2-methyl-1,2,3,4-tetrahydroisoquinolin-1-yl)methanol], for which the IC50 stood at 3.09 nM.

Turning to `COc1cc2c(cc1Nc1ncc3c(N)c(F)c(-c4cnc5c(c4C)NCCO5)cc3n1)C(C)N(C)C(C)C2` (racemic) [Compound 2-48, (R,R and S,S)-6-fluoro-N~2~-(6-methoxy-1,2,3-trimethyl-1,2,3,4-tetrahydroisoquinolin-7-yl)-7-(8-methyl-2,3-dihydro-1H-pyrido[2,3-b][1,4]oxazin-7-yl)quinazoline-2,5-diamine], the IC50 is 0.696 nM.

Regarding `Cc1c(-c2cc3nc(Nc4ccc5c(c4)C4CC5CN4C)ncc3c(N)c2F)cnc2c1NCCO2` (racemic) [Compound 2-79, (R,S and S,R)-6-fluoro-N2-(2-methyl-1,2,3,4-tetrahydro-1,4-methanoisoquinolin-7-yl)-7-(8-methyl-2,3-dihydro-1H-pyrido[2,3-b][1,4]oxazin-7-yl)quinazoline-2,5-diamine], the IC50 stood at 0.0305 nM. This IC50 lies about 23-fold lower than the previous one.

`COc1cc2c(cc1Nc1ncc3ccc(N4CC5(CCOC5)OC4=O)cc3n1)CN(C)CC2` (racemic) [Compound 3-3, (S and R)-3-{2-[(6-methoxy-2-methyl-1,2,3,4-tetrahydroiso-quinolin-7-yl)amino]quinazolin-7-yl}-1,7-dioxa-3-azaspiro[4.4]-nonan-2-one] returned an IC50 of 391 nM.

Consider `COc1cc2c(cc1Nc1ncc3ccc(N4CC(CO)OC4=O)cc3n1)CN(C)CC2` (racemic) [Compound 3-4, (S and R)-5-(hydroxymethyl)-3-{2-[(6-methoxy-2-methyl-1,2,3,4-tetrahydroisoquinolin-7-yl)amino]quinazolin-7-yl}-1,3-oxazolidin-2-one], for which it took 9.36 nM to reach half-maximal inhibition (IC50).

`COc1cc2c(cc1Nc1ncc3ccc(N4CC(C)(CO)OC4=O)cc3n1)CN(C)CC2` (racemic) [Compound 3-7, (S and R)-5-(hydroxymethyl)-3-{2-[(6-methoxy-2-methyl-1,2,3,4-tetrahydroisoquinolin-7-yl)amino]quinazolin-7-yl}-5-methyl-1,3-oxazolidin-2-one] registered an IC50 of 45.5 nM.

On to `COc1cc2c(cc1Nc1ncc3ccc(N4CC5(CCCNCC5)OC4=O)cc3n1)CN(C)CC2` (racemic) [Compound 3-8, (S and R)-3-{2-[(6-methoxy-2-methyl-1,2,3,4-tetrahydroiso-quinolin-7-yl)amino]quinazolin-7-yl}-1-oxa-3,8-diazaspiro[4.6]-undecan-2-one], for which 92.6 nM corresponded to half-maximal inhibition (IC50).

`COc1cc2c(cc1Nc1ncc3ccc(N4CC(C(C)(C)O)OC4=O)cc3n1)CN(C)CC2` (racemic) [Compound 3-9, (S and R)-5-(2-hydroxypropan-2-yl)-3-{2-[(6-methoxy-2-meth-yl-1,2,3,4-tetrahydroisoquinolin-7-yl)amino]quinazolin-7-yl}-1,3-oxazolidin-2-one] returned an IC50 of 63 nM.

`COc1cc2c(cc1Nc1ncc3ccc(N4CC(CN)OC4=O)cc3n1)CN(C)CC2` (racemic) [Compound 3-11, (S and R)-5-(aminomethyl)-3-{2-[(6-methoxy-2-methyl-1,2,3,4-tetrahydroisoquinolin-7-yl)amino]quinazolin-7-yl}-1,3-oxazolidin-2-one]: it took 82.4 nM to reach half-maximal inhibition (IC50).

The compound `CNCC1CN(c2ccc3cnc(Nc4cc5c(cc4OC)CCN(C)C5)nc3c2)C(=O)O1` (racemic) [Compound 3-12, (S and R)-3-12-[(6-methoxy-2-methyl-1,2,3,4-tetrahydroiso-quinolin-7-yl)amino]quinazolin-7-yl}-5-[(methylamino)methyl]-1,3-oxazolidin-2-one] came in with an IC50 of 94.2 nM.

`COc1cc2c(cc1Nc1ncc3ccc(-n4nc(C)nc4C4CCCN4)cc3n1)CN(C)CC2` (racemic) [Compound 3-19, (S and R)-N-(6-methoxy-2-meth-yl-1,2,3,4-tetrahydroisoquinolin-7-yl)-7-[3-methyl-5-(pyrrolidin-2-yl)-1H-1,2,4-triazol-1-yl]quin-azolin-2-amine] showed a half-inhibitory concentration (IC50) of 638 nM.

Compound `COc1cc2c(cc1Nc1ncc3ccc(N4CCCC(CN5CCCC5=O)C4)cc3n1)CN(C)CC2` (racemic) [Compound 3-20, (S and R)-1-1(1-12-[(6-methoxy-2-methyl-1,2,3,4-tetrahydroiso-quinolin-7-yl)amino]quinazolin-7-yl}piperidin-3-yl)methyl]-pyrrolidin-2-one] returned an IC50 of 771 nM.

`COc1cc2c(cc1Nc1ncc3ccc(NCC4CNC(=O)O4)cc3n1)CN(C)CC2` (racemic) [Compound 3-26, (S and R)-5-[({2-1(6-methoxy-2-methyl-1,2,3,4-tetrahydroiso-quinolin-7-yl)amino]quinazolin-7-yl}amino)methyl]-1,3-oxazol-idin-2-one] gave an IC50 of 149 nM.

With `COc1cc2c(cc1Nc1ncc3ccc(N(C)CC4CNC(=O)O4)cc3n1)CN(C)CC2` (racemic) [Compound 3-30, (S and R)-5-1112-1(6-methoxy-2-methyl-1,2,3,4-tetrahydroiso-quinolin-7-yl)amino]quinazolin-7-yl}(methyl)amino]methyl}-1,3-oxazolidin-2-one], the IC50 is 148 nM.

The compound `COc1cc2c(cc1Nc1ncc3ccc(NCC4CCS(=O)(=O)C4)cc3n1)CN(C)CC2` (racemic) [Compound 3-37, (S and R)-3-1({2-[(6-methoxy-2-methyl-1,2,3,4-tetrahydroiso-quinolin-7-yl)amino]quinazolin-7-yl}amino)methyl]-1lambda~ 6~-thiolane-1,1-dione] displayed an IC50 of 73.1 nM.

On to `COc1cc2c(cc1Nc1ncc3ccc(NC4CCCC(O)C4)cc3n1)CN(C)CC2` (racemic) [Compound 3-39, (±)-3-({2-[(6-methoxy-2-methyl-1,2,3,4-tetrahydroisoquinolin-7-yl)amino]quinazolin-7-yl}-amino)cyclohexan-1-ol], for which it took 228 nM to reach half-maximal inhibition (IC50).

`COc1cc2c(cc1Nc1ncc3ccc(N4CC(O)(C(F)(F)F)C4)cc3n1)CN(C)CC2` (racemic) [Compound 3-54, (S and R)-1-12-[(6-methoxy-2-methyl-1,2,3,4-tetrahydroiso-quinolin-7-yl)amino]quinazolin-7-yl}-3-(trifluoromethyl)azet-idin-3-ol] gave an IC50 of 189 nM. This IC50 and that of the compound before are within 1.5-fold of each other.

Take `COc1cc2c(cc1Nc1ncc3ccc(NC4CCN(C)C4=O)cc3n1)CN(C)CC2` (racemic) [Compound 3-56, (S and R)-3-({2-[(6-methoxy-2-methyl-1,2,3,4-tetrahydroiso-quinolin-7-yl)amino]quinazolin-7-yl}amino)-1-methylpyrrolidin-2-one]: the IC50 is 97.6 nM.

For `COc1cc2c(cc1Nc1ncc3ccc(NCC4CC(=O)N(C)C4)cc3n1)CN(C)CC2` (racemic) [Compound 3-59, (S and R)-4-[({2-[(6-methoxy-2-methyl-1,2,3,4-tetrahydroiso-quinolin-7-yl)amino]quinazolin-7-yl}amino)methyl]-1-methyl-pyrrolidin-2-one], the IC50 was determined as 365 nM.

Consider `COc1cc2c(cc1Nc1ncc3ccc(N4CC5CCS(=O)(=O)C5C4)cc3n1)CN(C)CC2` (racemic) [Compound 3-60, (±)-5-{2~-[(6-methoxy-2-meth-yl-1,2,3,4-tetrahydroisoquinolin-7-yl)amino]quinazolin-7-yl}-hexahydro-1lambda~6~-thieno-[2,3-c]pyrrole-1,1(2H)-dione], for which half-maximal inhibition (IC50) required 807 nM.

In turn, `COc1cc2c(cc1Nc1ncc3ccc(NC4CCCOC4)cc3n1)CN(C)CC2` (racemic) [Compound 3-69, (S and R)-N-2~-(6-methoxy-2-methyl-1,2,3,4-tetrahydroiso-quinolin-7-yl)-N~7~-(oxan-3-yl)quinazoline-2,7-diamine] yielded an IC50 of 470 nM.

In the case of `COc1cc2c(cc1Nc1ncc3ccc(NCC4(C)CCOC4)cc3n1)CN(C)CC2` (racemic) [Compound 3-75, (S and R)-N~2~-(6-methoxy-2-methyl-1,2,3,4-tetrahydroiso-quinolin-7-yl)-N~7~-[(3-meth-yloxolan-3-yl)methyl]quinaz-oline-2,7-diamine], the IC50 came out at 90.1 nM.

With `CNC(=O)C(C)c1ccc(Nc2ncc3cc(F)c(-c4cnc5c(c4C)NCCO5)cc3n2)cc1` (single isomer, unassigned) [Compound 1-116, (R or S)-2-(4-{[6-fluoro-7-(8-methyl-2,3-dihydro-1H-pyrido[2,3-b][1,4]oxazin-7-yl)quinazolin-2-yl]amino}phenyl)-N-methylpropanamide], the midpoint of inhibition, the IC50, lay at 0.221 nM.

In turn, `CNC(=O)C(C)c1ccc(Nc2ncc3cc(F)c(-c4cnc5c(c4C)NCCO5)cc3n2)cc1` (single isomer, unassigned) [Compound 1-117, (R or S)-2-(4-{[6-fluoro-7-(8-methyl-2,3-dihydro-1H-pyrido[2,3-b][1,4]oxazin-7-yl)quinazolin-2-yl]amino}phenyl)-N-methylpropanamide] came in with an IC50 of 0.0705 nM.
